From ChEMBL document CHEMBL1201862, “PubChem BioAssay data set” (2004)
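Following 48 hours of exposure in 96-well plates, responses at five concentrations were used to interpolate endpoints linearly. GI50 = concentration required for 50% inhibition of growth.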 Calls of active or inactive are those of the source. Rule as the data show it: active = GI50 up to about 1.1 µM and inactive = higher.

Key:
Experiment in all cases: DTP human tumour cell line panel, 48 h
SF-539 = system: SF-539
TK-10 = system: TK-10
IGROV-1 = system: IGROV-1
MDA-MB-231 = system: MDA-MB-231
DU-145 = system: DU-145
NCI-H460 = system: NCI-H460
HCT-15 = system: HCT-15
A498 = system: A498
LOX IMVI = system: LOX IMVI
SK-MEL-28 = system: SK-MEL-28
SK-MEL-5 = system: SK-MEL-5
RXF 393 = system: RXF 393
OVCAR-4 = system: OVCAR-4
SK-OV-3 = system: SK-OV-3
T47D = system: T47D
MCF7 = system: MCF7
HCT-116 = system: HCT-116
PC-3 = system: PC-3
SNB-19 = system: SNB-19
U-251 = system: U-251
M14 = system: M14
OVCAR-8 = system: OVCAR-8
SK-MEL-2 = system: SK-MEL-2
SW-620 = system: SW-620
786-0 = system: 786-0
Hs-578T = system: Hs-578T
MDA-N = system: MDA-N
CCRF-CEM = system: CCRF-CEM
COLO 205 = system: COLO 205
EKVX = system: EKVX
NCI-H23 = system: NCI-H23
UACC-257 = system: UACC-257
HCC 2998 = system: HCC 2998
SF-295 = system: SF-295
BT-549 = system: BT-549
MDA-MB-435 = system: MDA-MB-435
HOP-92 = system: HOP-92
RPMI-8226 = system: RPMI-8226
NCI-H522 = system: NCI-H522
SN12C = system: SN12C
OVCAR-5 = system: OVCAR-5
UO-31 = system: UO-31
HOP-62 = system: HOP-62
CAKI-1 = system: CAKI-1
SF-268 = system: SF-268
HT-29 = system: HT-29
UACC-62 = system: UACC-62
NCI/ADR-RES = system: NCI/ADR-RES
A549 = system: A549
ACHN = system: ACHN
OVCAR-3 = system: OVCAR-3
SR = system: SR
HL-60 = system: HL-60
KM12 = system: KM12
K562 = system: K562
MOLT-4 = system: MOLT-4
SNB-75 = system: SNB-75
NCI-H226 = system: NCI-H226
Malme-3M = system: Malme-3M

Compound: C=CCSC1=N/C(=C\c2ccc(Cl)cc2)C(=O)N1CC=C
- GI50 (SF-539): 28.8 µM (inactive)
- GI50 (TK-10): 55.7 µM (inactive)
- GI50 (IGROV-1): 53.8 µM (inactive)
- GI50 (MDA-MB-231): 30.2 µM (inactive)
- GI50 (DU-145): 20.5 µM (inactive)
- GI50 (NCI-H460): 43.7 µM (inactive)
- GI50 (HCT-15): 28.2 µM
- GI50 (A498): 13.6 µM (inactive)
- GI50 (LOX IMVI): 42.9 µM (inactive)
- GI50 (SK-MEL-28): 50.2 µM (inactive)
- GI50 (SK-MEL-5): 16.1 µM (inactive)
- GI50 (RXF 393): 19.8 µM (inactive)
- GI50 (OVCAR-4): 21.5 µM (inactive)
- GI50 (SK-OV-3): 42.8 µM (inactive)
- GI50 (T47D): 23.4 µM (inactive)
- GI50 (MCF7): 18.9 µM (inactive)
- GI50 (HCT-116): 25.1 µM (inactive)
- GI50 (PC-3): 20 µM (inactive)
- GI50 (SNB-19): 91.4 µM (inactive)
- GI50 (U-251): 22 µM (inactive)
- GI50 (M14): 66.2 µM (inactive)
- GI50 (OVCAR-8): 47.2 µM (inactive)
- GI50 (SK-MEL-2): 27.7 µM (inactive)
- GI50 (SW-620): 30.3 µM (inactive)
- GI50 (786-0): 35.7 µM (inactive)
- GI50 (Hs-578T): 68.7 µM (inactive)
- GI50 (MDA-N): 32.7 µM (inactive)
- GI50 (CCRF-CEM): 21.4 µM (inactive)
- GI50 (COLO 205): 33.3 µM (inactive)
- GI50 (EKVX): 17.1 µM (inactive)
- GI50 (NCI-H23): 24.6 µM (inactive)
- GI50 (UACC-257): 26.4 µM (inactive)
- GI50 (HCC 2998): 34.8 µM (inactive)
- GI50 (SF-295): 34.8 µM (inactive)
- GI50 (BT-549): 23.5 µM (inactive)
- GI50 (MDA-MB-435): 28.8 µM (inactive)
- GI50 (HOP-92): 22.1 µM (inactive)
- GI50 (RPMI-8226): 17.4 µM (inactive)
- GI50 (NCI-H522): 23 µM (inactive)
- GI50 (SN12C): 34.3 µM (inactive)
- GI50 (OVCAR-5): 63.8 µM (inactive)
- GI50 (UO-31): 34.7 µM (inactive)
- GI50 (HOP-62): 41.9 µM (inactive)
- GI50 (CAKI-1): 37 µM (inactive)
- GI50 (SF-268): 40.6 µM (inactive)
- GI50 (HT-29): 30.5 µM (inactive)
- GI50 (UACC-62): 30.2 µM (inactive)
- GI50 (NCI/ADR-RES): 34 µM (inactive)
- GI50 (A549): 32.7 µM (inactive)
- GI50 (ACHN): 32.6 µM (inactive)
- GI50 (OVCAR-3): 43.7 µM (inactive)
- GI50 (SR): 27.4 µM (inactive)
- GI50 (HL-60): 9.35 µM (inactive)
- GI50 (KM12): 24.9 µM (inactive)
- GI50 (K562): 29.5 µM (inactive)

Compound: Cc1ccc(/N=N/C(=N\c2ccc(F)cc2)c2ccc(N(CCC#N)CCC#N)cc2)cc1
- GI50 (SF-539): > 100 µM (inactive)
- GI50 (TK-10): > 100 µM (inactive)
- GI50 (IGROV-1): 70.1 µM (inactive)
- GI50 (MDA-MB-231): > 100 µM (inactive)
- GI50 (DU-145): > 100 µM (inactive)
- GI50 (NCI-H460): 33.5 µM (inactive)
- GI50 (HCT-15): > 100 µM
- GI50 (A498): > 100 µM (inactive)
- GI50 (SK-MEL-28): > 100 µM (inactive)
- GI50 (SK-MEL-5): 44.1 µM (inactive)
- GI50 (RXF 393): > 100 µM (inactive)
- GI50 (OVCAR-4): 60.3 µM (inactive)
- GI50 (MOLT-4): > 100 µM (inactive)
- GI50 (SK-OV-3): > 100 µM (inactive)
- GI50 (SNB-75): > 100 µM (inactive)
- GI50 (T47D): 47.1 µM (inactive)
- GI50 (MCF7): 42.5 µM (inactive)
- GI50 (HCT-116): 74.1 µM (inactive)
- GI50 (PC-3): 51.6 µM (inactive)
- GI50 (SNB-19): > 100 µM (inactive)
- GI50 (U-251): 36.2 µM (inactive)
- GI50 (M14): > 100 µM (inactive)
- GI50 (OVCAR-8): 77.4 µM (inactive)
- GI50 (SK-MEL-2): 62.7 µM (inactive)
- GI50 (SW-620): > 100 µM (inactive)
- GI50 (786-0): > 100 µM (inactive)
- GI50 (Hs-578T): 53.7 µM (inactive)
- GI50 (MDA-N): > 100 µM (inactive)
- GI50 (CCRF-CEM): 97.5 µM (inactive)
- GI50 (COLO 205): 64.4 µM (inactive)
- GI50 (EKVX): 99.5 µM (inactive)
- GI50 (NCI-H23): > 100 µM (inactive)
- GI50 (UACC-257): 30.3 µM (inactive)
- GI50 (HCC 2998): 46.9 µM (inactive)
- GI50 (SF-295): > 100 µM (inactive)
- GI50 (BT-549): 67.8 µM (inactive)
- GI50 (MDA-MB-435): 82.2 µM (inactive)
- GI50 (HOP-92): > 100 µM (inactive)
- GI50 (RPMI-8226): 74.6 µM (inactive)
- GI50 (NCI-H522): 19.2 µM (inactive)
- GI50 (SN12C): > 100 µM (inactive)
- GI50 (OVCAR-5): > 100 µM (inactive)
- GI50 (UO-31): > 100 µM (inactive)
- GI50 (HOP-62): > 100 µM (inactive)
- GI50 (CAKI-1): > 100 µM (inactive)
- GI50 (SF-268): > 100 µM (inactive)
- GI50 (HT-29): > 100 µM (inactive)
- GI50 (UACC-62): > 100 µM (inactive)
- GI50 (NCI/ADR-RES): > 100 µM (inactive)
- GI50 (A549): 45.9 µM (inactive)
- GI50 (ACHN): > 100 µM (inactive)
- GI50 (NCI-H226): > 100 µM (inactive)
- GI50 (OVCAR-3): 86.3 µM (inactive)
- GI50 (SR): 74.3 µM (inactive)
- GI50 (KM12): 33.3 µM (inactive)
- GI50 (K562): > 100 µM (inactive)

Compound: O=C1NC(=O)[C@H]2C3C=CC([C@@H]12)[C@@H]1C(=O)NC(=O)[C@H]31
- GI50 (SF-539): > 100 µM (inactive)
- GI50 (TK-10): > 100 µM (inactive)
- GI50 (IGROV-1): > 100 µM (inactive)
- GI50 (MDA-MB-231): > 100 µM (inactive)
- GI50 (DU-145): > 100 µM (inactive)
- GI50 (NCI-H460): > 100 µM (inactive)
- GI50 (HCT-15): > 100 µM
- GI50 (LOX IMVI): > 100 µM (inactive)
- GI50 (SK-MEL-28): > 100 µM (inactive)
- GI50 (SK-MEL-5): > 100 µM (inactive)
- GI50 (Malme-3M): > 100 µM (inactive)
- GI50 (RXF 393): > 100 µM (inactive)
- GI50 (MOLT-4): > 100 µM (inactive)
- GI50 (T47D): > 100 µM (inactive)
- GI50 (MCF7): 97.1 µM (inactive)
- GI50 (HCT-116): > 100 µM (inactive)
- GI50 (PC-3): > 100 µM (inactive)
- GI50 (SNB-19): > 100 µM (inactive)
- GI50 (U-251): > 100 µM (inactive)
- GI50 (M14): > 100 µM (inactive)
- GI50 (OVCAR-8): > 100 µM (inactive)
- GI50 (SK-MEL-2): > 100 µM (inactive)
- GI50 (SW-620): > 100 µM (inactive)
- GI50 (786-0): > 100 µM (inactive)
- GI50 (Hs-578T): > 100 µM (inactive)
- GI50 (MDA-N): > 100 µM (inactive)
- GI50 (CCRF-CEM): > 100 µM (inactive)
- GI50 (COLO 205): > 100 µM (inactive)
- GI50 (EKVX): > 100 µM (inactive)
- GI50 (NCI-H23): > 100 µM (inactive)
- GI50 (UACC-257): > 100 µM (inactive)
- GI50 (HCC 2998): > 100 µM (inactive)
- GI50 (SF-295): > 100 µM (inactive)
- GI50 (BT-549): > 100 µM (inactive)
- GI50 (MDA-MB-435): > 100 µM (inactive)
- GI50 (HOP-92): > 100 µM (inactive)
- GI50 (RPMI-8226): > 100 µM (inactive)
- GI50 (NCI-H522): > 100 µM (inactive)
- GI50 (SN12C): > 100 µM (inactive)
- GI50 (OVCAR-5): > 100 µM (inactive)
- GI50 (UO-31): > 100 µM (inactive)
- GI50 (HOP-62): > 100 µM (inactive)
- GI50 (CAKI-1): > 100 µM (inactive)
- GI50 (SF-268): > 100 µM (inactive)
- GI50 (UACC-62): > 100 µM (inactive)
- GI50 (NCI/ADR-RES): > 100 µM (inactive)
- GI50 (A549): > 100 µM (inactive)
- GI50 (ACHN): > 100 µM (inactive)
- GI50 (NCI-H226): > 100 µM (inactive)
- GI50 (OVCAR-3): > 100 µM (inactive)
- GI50 (SR): > 100 µM (inactive)
- GI50 (HL-60): > 100 µM (inactive)
- GI50 (K562): > 100 µM (inactive)
